According to patent US6737383B1, “Herbicidal oxadiazolidines” (priority 1999, dated 2004):

Legend:
[1] = test system: purple nutsedge; test: Test B pre/postemergence purple nutsedge; assay type: in vivo, Cyperus rotundus
Summary of the method: (§1)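 Herbicidal effect was estimated by eye on a ten-point control scale after plants spent twelve to sixteen days in a greenhouse following soil or foliar treatment. Foliar sprays targeted plants at one to four leaves; all doses were formulated in a non-phytotoxic solvent with surfactant.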

[2] = test system: velvetleaf; test: Test B pre/postemergence velvetleaf; assay type: in vivo, Abutilon theophrasti; details: for Plant response rating, Velvetleaf: Rate 250 g/ha
Summary of the method: as §1

[3] = test system: morningglory; test: Test B pre/postemergence morningglory; assay type: in vivo, Ipomoea hederacea
Summary of the method: as §1

[4] = test system: rape; test: Test B pre/postemergence rape; assay type: in vivo, Brassica napus
Summary of the method: as §1

[5] = test system: cocklebur; test: Test B pre/postemergence cocklebur; assay type: in vivo, Xanthium strumarium
Summary of the method: as §1

[6] = test system: sugar beet; test: Test B pre/postemergence sugar beet; assay type: in vivo, Beta vulgaris; details: for Plant response rating, Sugarbeets: Rate 250 g/ha
Summary of the method: as §1

[7] = test system: wheat; test: Test B pre/postemergence wheat; assay type: in vivo, Triticum aestivum; details: for Plant response rating, Wheat: Rate 250 g/ha
Summary of the method: as §1

[8] = test system: soybean; test: Test B pre/postemergence soybean; assay type: in vivo, Glycine max
Summary of the method: as §1

[9] = test system: pigweed; test: Test B pre/postemergence pigweed; assay type: in vivo, Amaranthus retroflexus
Summary of the method: as §1

[10] = test system: rice; test: Test B flood test rice; assay type: in vivo, Oryza sativa
Summary of the method: (§2)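 Flood test on plants grown to the 2-leaf stage; treated plants kept in greenhouse twelve to sixteen days, then visually rated against controls on a 0 (no effect) to 10 (complete control) scale.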

[11] = test system: wild oat; test: Test B pre/postemergence wild oat; assay type: in vivo, Avena fatua; details: for Plant response rating, Wild oats: Rate 250 g/ha
Summary of the method: as §1

[12] = test system: corn; test: Test B pre/postemergence corn; assay type: in vivo, Zea mays
Summary of the method: as §1

[13] = test system: bamyardgrass; test: Test B flood test barnyardgrass; assay type: in vivo, Echinochloa crus-galli
Summary of the method: as §2

[14] = test system: giant foxtail; test: Test B pre/postemergence giant foxtail; assay type: in vivo, Setaria faberii
Summary of the method: as §1

[15] = test system: duck salad; test: Test B flood test duck salad; assay type: in vivo, Heteranthera limosa
Summary of the method: as §2

[16] = test system: crabgrass; test: Test B pre/postemergence crabgrass; assay type: in vivo, Digitaria sanguinalis
Summary of the method: as §1

[17] = Postemergence, Rate 125 g/ha, scale of 0 to 10 where 0 is no effect and 10 is complete control
[18] = Postemergence, Rate 250 g/ha, scale 0 to 10, 0 no effect, 10 complete control
[19] = Preemergence, Rate 62 g/ha, scale 0 to 10 (0 no effect, 10 complete control)
[20] = Preemergence, Rate 125 g/ha, scale 0 to 10 (0 no effect, 10 complete control)
[21] = Preemergence, Rate 250 g/ha, scale of 0 to 10 where 0 is no effect and 10 is complete control
[22] = Preemergence, Rate 500 g/ha, scale 0 to 10 (0 no effect, 10 complete control)
[23] = Rate 62 g/ha, Postemergence, scale of 0 to 10 where 0 is no effect and 10 is complete control
[24] = Rate 500 g/ha, Postemergence, scale 0 to 10, 0 no effect, 10 complete control
[25] = Preemergence, Rate 125 g/ha, 0 is no effect, 10 is complete control
[26] = Preemergence, scale of 0 to 10 where 0 is no effect and 10 is complete control
[27] = Postemergence, scale 0 to 10, 0 is no effect, 10 is complete control
[28] = Rate 250 g/ha, Postemergence, scale 0 to 10, 0 is no effect, 10 is complete control
[29] = Postemergence (flood test species), Rate 125 g/ha, scale of 0 to 10 where 0 is no effect and 10 is complete control
[30] = Rate 62 g/ha, Postemergence section, flood test species, scale of 0 to 10 where 0 is no effect and 10 is complete control
[31] = Rate 250 g/ha, headed Pre-emergence (flood test species), scale 0 to 10 (0 no effect, 10 complete control)
[32] = Rate 500 g/ha, headed Pre-emergence (flood test species), scale 0 to 10 (0 no effect, 10 complete control)
[33] = Rate 500 g/ha, listed under Postemergence (flood test species), scale 0 to 10, 0 no effect, 10 complete control
[34] = Rate 1000 g/ha, Pre-emergence (as headed), scale 0 to 10
[35] = Rate 2000 g/ha, Pre-emergence (as headed), scale 0 to 10
[36] = flood test, listed under Postemergence, Rate 250 g/ha, scale 0 to 10, 0 no effect, 10 complete control

What does the source list for `CCn1c(=O)on(C(=O)N(c2ccc(Cl)cc2)C(C)C)c1=O` [Compound 108]?
Nutsedge plant response rating [1, 17]: 3; Nutsedge plant response rating [1, 18]: 4; Nutsedge plant response rating [1, 19]: 0; Plant response rating, Nutsedge [1, 20]: 0; Plant response rating, Nutsedge [1, 21]: 0; Nutsedge plant response rating [1, 22]: 0; Nutsedge plant response rating [1, 23]: 0; Nutsedge plant response rating [1, 24]: 4; Velvetleaf plant response rating [2, 17]: 4; Velvetleaf plant response rating [2, 19]: 3; Velvetleaf plant response rating (0 to 10 scale) [2, 25]: 4; Plant response rating, Velvetleaf [2, 26]: 4; Velvetleaf plant response rating [2, 22]: 5; Velvetleaf plant response rating [2, 23]: 2; Plant response rating, Velvetleaf [2, 27]: 4; Velvetleaf plant response rating [2, 24]: 5; Morningglory plant response rating [3, 17]: 3; Morningglory plant response rating [3, 18]: 3; Morningglory plant response rating [3, 19]: 0; Plant response rating, Morningglory [3, 20]: 0; Plant response rating, Morningglory [3, 21]: 0; Morningglory plant response rating [3, 22]: 0; Morningglory plant response rating [3, 23]: 0; Morningglory plant response rating [3, 24]: 3; Rape plant response rating [4, 17]: 0; Rape plant response rating [4, 18]: 0; Rape plant response rating [4, 19]: 0; Plant response rating, Rape [4, 20]: 0; Plant response rating, Rape [4, 21]: 7; Rape plant response rating [4, 22]: 9; Rape plant response rating [4, 23]: 0; Rape plant response rating [4, 24]: 2; Cocklebur plant response rating [5, 17]: 0; Cocklebur plant response rating [5, 18]: 0; Plant response rating, Cocklebur [5, 20]: 0; Plant response rating, Cocklebur [5, 21]: 0; Cocklebur plant response rating [5, 22]: 0; Cocklebur plant response rating [5, 23]: 0; Cocklebur plant response rating [5, 24]: 2; Sugarbeets plant response rating [6, 17]: 0; Sugarbeets plant response rating [6, 19]: 3; Sugarbeets plant response rating (0 to 10 scale) [6, 25]: 3; Plant response rating, Sugarbeets [6, 26]: 4; Sugarbeets plant response rating [6, 22]: 8; Sugarbeets plant response rating [6, 23]: 0; Plant response rating, Sugarbeets [6, 27]: 2; Sugarbeets plant response rating [6, 24]: 2; Wheat plant response rating [7, 17]: 0; Wheat plant response rating [7, 19]: 0; Wheat plant response rating (0 to 10 scale) [7, 25]: 0; Plant response rating, Wheat [7, 26]: 2; Wheat plant response rating [7, 22]: 3; Wheat plant response rating [7, 23]: 0; Plant response rating, Wheat [7, 27]: 0; Wheat plant response rating [7, 24]: 2; Soybean plant response rating [8, 17]: 3; Soybean plant response rating [8, 19]: 0; Plant response rating, Soybean [8, 20]: 0; Plant response rating, Soybean [8, 21]: 0; Soybean plant response rating [8, 22]: 2; Soybean plant response rating [8, 23]: 1; Plant response rating, Soybean [8, 28]: 5; Soybean plant response rating [8, 24]: 5; Redroot pigweed plant response rating [9, 17]: 0; Plant response rating, Redroot pigweed [9, 20]: 3; Plant response rating, Redroot pigweed [9, 21]: 10; Redroot pigweed plant response rating [9, 22]: 10; Redroot pigweed plant response rating [9, 23]: 0; Plant response rating, Redroot pigweed [9, 28]: 0; Redroot pigweed plant response rating [9, 24]: 3; Rice plant response rating [10, 29]: 0; Rice plant response rating [10, 30]: 0; Plant response rating, Rice ([10]; Rate 250 g/ha, Postemergence (flood test), scale 0 to 10, 0 is no effect, 10 is complete control): 0; Rice plant response rating [10, 31]: 0; Plant response rating, Rice [10, 32]: 0; Rice plant response rating [10, 33]: 0; Rice plant response rating [10, 34]: 0; Rice plant response rating [10, 35]: 0; Wild oats plant response rating [11, 17]: 0; Wild oats plant response rating [11, 19]: 9; Wild oats plant response rating (0 to 10 scale) [11, 25]: 9; Plant response rating, Wild oats [11, 26]: 9; Wild oats plant response rating [11, 22]: 9; Wild oats plant response rating [11, 23]: 0; Plant response rating, Wild oats [11, 27]: 3; Wild oats plant response rating [11, 24]: 3; Corn plant response rating [12, 17]: 0; Corn plant response rating [12, 18]: 0; Corn plant response rating [12, 19]: 0; Plant response rating, Corn [12, 20]: 0; Plant response rating, Corn [12, 21]: 6; Corn plant response rating [12, 22]: 9; Corn plant response rating [12, 23]: 0; Corn plant response rating [12, 24]: 0; Barnyardgrass plant response rating ([13]; Postemergence, Rate 62 g/ha, scale 0 to 10, 0 is no effect, 10 is complete control): 0; Barnyardgrass plant response rating ([13]; Rate 125 g/ha, Postemergence section (flood test species), scale 0 to 10, 0 no effect, 10 complete control): 0; Barnyardgrass plant response rating [13, 31]: 0; Plant response rating, Barnyardgrass [13, 32]: 0; Barnyardgrass plant response rating [13, 33]: 0; Barnyardgrass plant response rating [13, 34]: 0; Barnyardgrass plant response rating ([13]; Rate 2000 g/ha, Pre-emergence (as headed), scale 0 to 10, 0 no effect, 10 complete control): 0; Barnyardgrass plant response rating [13, 36]: 0; Giant foxtail plant response rating [14, 17]: 7; Giant foxtail plant response rating [14, 18]: 8; Giant foxtail plant response rating [14, 19]: 10; Plant response rating, Giant foxtail [14, 20]: 10; Plant response rating, Giant foxtail [14, 21]: 10; Giant foxtail plant response rating [14, 22]: 10; Giant foxtail plant response rating [14, 23]: 5; Giant foxtail plant response rating [14, 24]: 8; Ducksalad plant response rating [15, 29]: 0; Ducksalad plant response rating [15, 30]: 0; Ducksalad plant response rating [15, 31]: 0; Plant response rating, Ducksalad [15, 32]: 0; Ducksalad plant response rating [15, 33]: 0; Ducksalad plant response rating [15, 34]: 0; Ducksalad plant response rating [15, 35]: 0; Ducksalad plant response rating [15, 36]: 0; Crabgrass plant response rating [16, 17]: 8; Crabgrass plant response rating [16, 18]: 8; Crabgrass plant response rating [16, 19]: 7; Plant response rating, Crabgrass [16, 20]: 9; Plant response rating, Crabgrass [16, 21]: 9; Crabgrass plant response rating [16, 22]: 10; Crabgrass plant response rating [16, 23]: 4; Crabgrass plant response rating [16, 24]: 9
